{
  "source": "patent US12239686B2",
  "about": "“Immune checkpoint inhibitor combinations” (LYTIX BIOPHARMA AS, priority 2014, dated 2025)",
  "format_in_all_cases": "cell-based, human",
  "key": {"MCF-7/mdr": {"test_system": "MCF-7/mdr", "experimental": "(§1) Tumor cells were grown as adherent monolayers or as suspensions at 37° C. in a humidified atmosphere (5% CO2, 95% air). The culture medium was RPMI 1640 containing 2 mM L-glutamine (Lonza, Belgium) and supplemented with 10% fetal bovine serum (FBS, Lonza). For experimental use, the adherent cells were detached from the culture flask by a 5-minute treatment with trypsin-versene (Lonza), diluted in Hanks' medium without calcium or magnesium (Lonza) and neutralized by addition of complete culture medium. Cells were counted in a hemocytometer and their viability was assessed by 0.25% trypan blue exclusion.\n(§2) Tumor cells were plated in 96-well flat-bottom microtitration plates (Nunc, Dutscher, Brumath, France) and incubated at 37° C. for 24 hours before treatment in 190 μl of drug-free culture medium supplemented or not with 10% FBS for adherent or suspension growing cell lines, respectively.\n(§3) The adherent cell lines were washed once with 200 μl FBS-free culture medium before treatment. Tumor cells were incubated for 4 hours with 10 concentrations of compounds in ¼ dilution step with a top dose of 400 μM (range 4×10^−4 to 4×10^−10 M), with 1% (final concentration) Triton X-100 as positive control and FBS-free culture medium as negative control. The cells (190 μl) were incubated in a 200 μl final volume of FBS-free culture medium containing test substances at 37° C. under 5% CO2.\n(§4) Three independent experiments were performed, each concentration being tested in quadruplicate. Control cells were treated with vehicle alone. At the end of treatments, the cytotoxic activity was evaluated by a MTS assay (see § 3.3).\n(§5) Like MTT, MTS is bioreduced by cells into a formazan product that is directly soluble in culture medium without processing, unlike MTT.\n(§6) At the end of the cells treatment, 40 μl of a 0.22 μm filtered freshly combined solution of MTS (20 ml at 2 mg/ml, Ref G1111, Batch 235897, Exp 03/2009, Promega, Charbonnières, France) and PMS (1 ml at 0.92 mg/ml, Ref P9625, Batch 065K0961, Sigma) in Dulbecco's Phosphate Buffered Saline (DPBS, Ref 17-513Q, Batch 6MB0152, Cambrex), were added in each well. Culture plates were incubated for 2 h at 37° C. Absorbency (OD) were measured at 490 nm in each well using VICTOR^3TM 1420 multilabeled counter (Wallac, PerkinElmer, Courtaboeuf, France).\n(§7) [formula] • The OD values are the mean of 4 experimental measurements. • IC50: drug concentration to obtain a 50% inhibition of cell proliferation.\n(§8) The dose-response curves were plotted using XLFit 3 (IDBS, United Kingdom). The IC50 determination values were calculated using the XLFit 3 software from semi-log curves. Individual IC50 determination values as well as mean and SD values were generated.\n(§9) Resistance index was calculated using the following formula: […]\n(§10) Resistance index was calculated for each compound for each couple of sensitive and resistant cell lines. Individual resistance index was calculated when IC50 values of both sensitive and corresponding resistant cell lines were determined within same experiment. In addition, resistance index was also calculated ratio of mean IC50 values obtained during three independent experiments."}, "IGROV-1/CDDP": {"test_system": "IGROV-1/CDDP", "experimental": "as §1, §2, §3, §4, §5, §6, §7, §8, §9, §10"}, "HL-60/ADR": {"test_system": "HL-60/ADR", "test": "In vitro cytotoxic activity, MTS assay; resistance index", "details": "HL-60/ADR vs sensitive HL-60 (doxorubicin resistance)", "experimental": "as §1, §2, §3, §4, §5, §6, §7, §8, §9, §10"}, "A375 melanoma cells": {"test_system": "A375 melanoma cells", "test": "Live cell imaging, bright field confocal microscopy", "details": "at an IC-50 value, majority of the cells", "experimental": "Live cell imaging with unlabeled cells-A375 cells were seeded at 10,000 cells/well in a complete media in Nunc Lab-Tec 8-wells chambered covered glass (Sigma) precoated with 25 μg/ml human fibronectin (Sigma) that were allowed to adhere overnight. Cells were washed twice with a serum-free RPMI, treated with peptide dissolved in RPMI and investigated using Bright on a Leica TCS SP5 confocal microscope, with a 63X/1.2W objective. The microscope was equipped with an incubation chamber with CO2 and temperature control."}, "A375 cells [1]": {"test_system": "A375 cells", "test": "Release of HMGB1, Western blot of lysate and supernatant", "details": "35 μM, 5-60 min", "experimental": "A375 cells were seeded with 3×10^5 cells/well in 6-well plates in a complete media, and allowed to adhere overnight. Cells were treated with LTX-315 or LTX-328 at 35 μM, and incubated at 37° C. and 5% CO2 for different time points (5, 10, 15, 30, 60 min), and negative controls were serum-free RPMI-1650. Supernatants (S) were collected and centrifuged at 1,400 g for five minutes, and cell lysates (L) were harvested after washing with PBS twice and then subsequently lysed using a 4× Sample buffer (Invitrogen, number), 0.1 M DTT (Sigma number) and water. Supernatants were concentrated using Amicon Ultra 50K centrifugal filters (Millipore UFC505024), and the cell lysate was sonicated. Both supernatants and lysate were boiled and resolved in a 10% sodium dodecyl sulfate polyacrylamide gel electrophoresis (SDS-PAGE), and then electro transferred to a polyvindiline difluoride (PVDF) membrane (Millipore). The membrane was blocked in 5% milk and incubated with the HMGB1 antibody (rabbit, polyclonal, abcam ab 18256); the membrane was then rinsed several times with TBST, incubated with a horseradish peroxidase (HRP)-conjugated secondary antibody (abcam ab6721), rinsed again with TBST and then developed using WB Luminol Reagent (Santa Cruz Biotechnology, Heidelberg, Germany)."}, "A375 cells [2]": {"test_system": "A375 cells", "test": "Release of ATP, luciferase assay of supernatant", "details": "concentration-dependent", "experimental": "The supernatant of LTX-315-treated A375 cells was analyzed using an Enliten ATP luciferase assay kit (Promega, USA). Cells were then seeded as with an ROS assay, and treated with LTX-315 in different incubation times, from 1 to 15 minutes with two parallels, which was then conducted three times. Negative controls were untreated A375 cells exposed to serum-free media alone. Samples were diluted at 1:50 and 1:100, and analyzed with a Luminoscan RT luminometer according to the manufacturer's protocol."}},
  "note": "pIC50: −log10 of the molar value. Non-standard residues stand in square brackets, D forms with d. Residues, ends and D or L forms follow the SMILES beside them. Dip = N[C@H](C(=O)O)C(c1ccccc1)c1ccccc1",
  "data": [
    {"smiles": "NCCCC[C@H](NC(=O)[C@@H](NC(=O)[C@H](Cc1c[nH]c2ccccc12)NC(=O)[C@H](CCCCN)NC(=O)[C@H](CCCCN)NC(=O)[C@H](Cc1c[nH]c2ccccc12)NC(=O)[C@H](Cc1c[nH]c2ccccc12)NC(=O)[C@H](CCCCN)NC(=O)[C@@H](N)CCCCN)C(c1ccccc1)c1ccccc1)C(N)=O", "note": "[LTX-315, K-K-W-W-K-K-W-Dip-K-NH2] (H-KKWWKKW[Dip]K-NH2)", "values": [
      {"measurement": "Resistance index (RI)", "setting": "MCF-7/mdr; MCF-7/mdr vs sensitive MCF-7 (doxorubicin resistance)", "result": 1.12},
      {"measurement": "pIC50", "setting": "MCF-7/mdr; MCF-7/mdr, resistant", "result": 5.71},
      {"measurement": "Resistance index (RI)", "setting": "IGROV-1/CDDP; IGROV-1/CDDP vs IGROV-1 (cisplatin resistance)", "result": 0.50},
      {"measurement": "pIC50", "setting": "IGROV-1/CDDP; IGROV-1/CDDP, resistant", "result": 5.50},
      {"measurement": "Resistance index (RI)", "setting": "HL-60/ADR", "result": 1.45},
      {"measurement": "time to cell collapse with extrusion of cytoplasmic content", "setting": "A375 melanoma cells", "result": "15 to 60", "unit": "min"},
      {"measurement": "HMGB1 translocation from cell lysate to supernatant", "setting": "A375 cells [1]", "result": "gradual translocation from the cell lysate to the supernatant detected"},
      {"measurement": "extracellular ATP release", "setting": "A375 cells [2]", "result": "ATP was detected in the supernatant as early as after 5 minutes of treatment"}
    ]}
  ]
}
